Source: patent US10323027B2, “2,3-dihydro-4H-1,3-benzoxazin-4-one derivatives as modulators of cholinergic muscarinic M1 receptor” (Takeda Pharmaceutical Company Limited, priority 2015, dated 2019)
Structures can show the parent of a compound that is named as a salt.

Target: T1, human M1 receptor (hCHRM1) (Homo sapiens, UniProt P11229)
T1 construct: expressed in transfected cells
T1 sequence (P11229 1-460): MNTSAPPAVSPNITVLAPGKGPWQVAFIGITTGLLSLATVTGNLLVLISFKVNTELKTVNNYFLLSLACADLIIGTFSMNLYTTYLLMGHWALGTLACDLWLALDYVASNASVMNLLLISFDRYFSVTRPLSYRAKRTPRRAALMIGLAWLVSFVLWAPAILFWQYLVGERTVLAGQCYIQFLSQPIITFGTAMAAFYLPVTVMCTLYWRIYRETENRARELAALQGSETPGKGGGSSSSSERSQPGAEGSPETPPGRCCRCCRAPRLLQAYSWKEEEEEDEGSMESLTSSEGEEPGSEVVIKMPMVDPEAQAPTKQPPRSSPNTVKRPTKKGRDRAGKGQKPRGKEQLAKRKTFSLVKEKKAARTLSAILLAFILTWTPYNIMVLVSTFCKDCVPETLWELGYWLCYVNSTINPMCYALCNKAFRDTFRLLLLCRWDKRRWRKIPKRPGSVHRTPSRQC
Assay: Measurement of M1 receptor positive allosteric modulator (M1PAM) activity, Ca2+ fluorescence by FDSS/μ cell (Experimental Example 2)
Assay type: cell-based
Conditions: for activity (%) at 10 μM: 10 μM test compound, 100% = acetylcholine 1 μM, 0% = DMSO; for EC50: inflection point of concentration-dependent curve, in presence of acetylcholine at EC20 (0.8-1.0 nM), CHO-K1 cells expressing hCHRM1, read-out: IP value
Experimental: Measurement of M1 Receptor Positive Allosteric Modulator (M1PAM) Activity
The activity of a test compound in the presence of acetylcholine at EC20 concentration (final concentration 0.8-1.0 nM), which affords an action corresponding to about 20% of the maximum activity, was measured as PAM activity. The method is as follows. CHO-K1 cells stably expressing a human M1 receptor (hCHRM1) were plated on a 384-well black clear bottom plate (BD Falcon) at 5,000 cells/well, and cultured in an incubator at 37° C., 5% CO2 for 1 day. The medium in the cell plate was removed, and a dye solution (prepared by adding Recording medium (DOJINDO LABORATORIES) to a final concentration of 1×concentration, Fluo-4 AM (DOJINDO LABORATORIES) to a final concentration of 2.5 μg/mL, Pluronic F127 (DOJINDO LABORATORIES) to a final concentration of 0.08%, and probenecid (DOJINDO LABORATORIES) to a final concentration of 1.25 mM to assay buffer (HBSS (Invitrogen), 20 mM HEPES (Invitrogen), 0.1% BSA (Wako Pure Chemical Industries, Ltd.))) was added at 30 μL/well. The cells were left standing in the incubator at 37° C., 5% CO2 for 30 min, and further left standing at room temperature for 30 min. A test compound prepared by diluting with assay buffer containing 3.2-4.0 nM acetylcholine was added at 10 μL/well, and the fluorescence was measured by FDSS/μ cell (Hamamatsu Photonics K.K.) for 1 min every 1 second. With the definition that the amount of change in the fluorescence on addition of acetylcholine (final concentration 1 μM) is 100% and that on addition of DMSO instead of a test compound is 0%, the activity (%) of the test compound was calculated, and the inflection point in the concentration-dependent curve of the test compound was calculated as IP values.

activity (%) at 10 μM	EC50	Compound
103%	4.6 nM	Cc1nn(C)cc1-c1ccc(Cc2cc3c(c(F)c2C)OCN([C@H]2CCC[C@@H]2O)C3=O)cn1 [Example 93, 6-((6-(1,3-dimethyl-1H-pyrazol-4-yl)pyridin-3-yl)methyl)-8-fluoro-3-((1S,2S)-2-hydroxycyclopentyl)-7-methyl-2,3-dihydro-4H-1,3-benzoxazin-4-one]
103%	4.9 nM	Cc1c(Cc2ccc(-n3cccn3)nc2)cc2c(c1C)OCN([C@H]1COCC[C@@H]1O)C2=O [Example 98, 1,5-anhydro-2,4-dideoxy-2-(7,8-dimethyl-4-oxo-6-((6-(1H-pyrazol-1-yl)pyridin-3-yl)methyl)-2H-1,3-benzoxazin-3(4H)-yl)-L-threo-pentitol]
97%	2.9 nM	Cc1c(Cc2ccc(-c3ccn(C)n3)nc2)cc2c(c1Cl)OCN([C@H]1CCC[C@@H]1O)C2=O [Example 99, 8-chloro-3-((1S,2S)-2-hydroxycyclopentyl)-7-methyl-6-((6-(1-methyl-1H-pyrazol-3-yl)pyridin-3-yl)methyl)-2,3-dihydro-4H-1,3-benzoxazin-4-one]
99%	4.4 nM	Cc1c(Cc2ccc(-c3ccn(C)n3)cc2)cc2c(c1C)OCN([C@H]1COCC[C@@H]1O)C2=O [Example 100, 1,5-anhydro-2,4-dideoxy-2-(7,8-dimethyl-6-(4-(1-methyl-1H-pyrazol-3-yl)benzyl)-4-oxo-2H-1,3-benzoxazin-3(4H)-yl)-L-threo-pentitol]
91%	61 nM	Cc1c(Cc2ccc(-n3cccn3)cc2)cc2c(c1F)OCN(CC(C)(C)O)C2=O [Example 101, 8-fluoro-3-(2-hydroxy-2-methylpropyl)-7-methyl-6-(4-(1H-pyrazol-1-yl)benzyl)-2,3-dihydro-4H-1,3-benzoxazin-4-one]
98%	8.7 nM	Cc1c(Cc2ccc(-n3cccn3)nc2)cc2c(c1F)OCN([C@H]1COCC[C@@H]1O)C2=O [Example 102, 1,5-anhydro-2,4-dideoxy-2-(8-fluoro-7-methyl-4-oxo-6-((6-(1H-pyrazol-1-yl)pyridin-3-yl)methyl)-2H-1,3-benzoxazin-3(4H)-yl)-L-threo-pentitol]
103%	15 nM	Cc1cc2c(cc1Cc1ccc(-n3cccn3)nc1)C(=O)N([C@H]1COCC[C@@H]1O)CO2 [Example 103, 1,5-anhydro-2,4-dideoxy-2-(7-methyl-4-oxo-6-((6-(1H-pyrazol-1-yl)pyridin-3-yl)methyl)-2H-1,3-benzoxazin-3(4H)-yl)-L-threo-pentitol]
98%	5.6 nM	Cc1cc(-c2ccc(Cc3cc4c(c(F)c3C)OCN([C@H]3CCC[C@@H]3O)C4=O)cc2)cnn1 [Example 105, 8-fluoro-3-((1S,2S)-2-hydroxycyclopentyl)-7-methyl-6-(4-(6-methylpyridazin-4-yl)benzyl)-2,3-dihydro-4H-1,3-benzoxazin-4-one hydrochloride]
113%	6.9 nM	Cc1c(Cc2ccc(-n3cccn3)nc2)cc2c(c1Cl)OCN([C@H]1COCC[C@@H]1O)C2=O [Example 106, 1,5-anhydro-2-(8-chloro-7-methyl-4-oxo-6-((6-(1H-pyrazol-1-yl)pyridin-3-yl)methyl)-2H-1,3-benzoxazin-3(4H)-yl)-2,4-dideoxy-L-threo-pentitol]
99%	5.5 nM	CCc1cc2c(cc1Cc1ccc(-n3cccn3)cc1)C(=O)N([C@H]1COCC[C@@H]1O)CO2 [Example 107, 1,5-anhydro-2,4-dideoxy-2-(7-ethyl-4-oxo-6-(4-(1H-pyrazol-1-yl)benzyl)-2H-1,3-benzoxazin-3(4H)-yl)-L-threo-pentitol]
99%	5.3 nM	Cc1c(Cc2ccc(-c3ccn(C)n3)cc2)cc2c(c1F)OCN([C@H]1COCC[C@@H]1O)C2=O [Example 108, 1,5-anhydro-2,4-dideoxy-2-(8-fluoro-7-methyl-6-(4-(1-methyl-1H-pyrazol-3-yl)benzyl)-4-oxo-2H-1,3-benzoxazin-3(4H)-yl)-L-threo-pentitol]
97%	5.7 nM	COc1ccc(Cc2cc3c(c(Cl)c2C)OCN([C@H]2COCC[C@@H]2O)C3=O)cn1 [Example 109, 1,5-anhydro-2-(8-chloro-6-((6-methoxypyridin-3-yl)methyl)-7-methyl-4-oxo-2H-1,3-benzoxazin-3(4H)-yl)-2,4-dideoxy-L-threo-pentitol]
99%	4.8 nM	C=Cc1ccc(Cc2cc3c(c(C)c2C)OCN([C@H]2COCC[C@@H]2O)C3=O)cn1 [Example 110, 1,5-anhydro-2,4-dideoxy-2-(7,8-dimethyl-4-oxo-6-((6-vinylpyridine-3-yl)methyl)-2H-1,3-benzoxazin-3(4H)-yl)-L-threo-pentitol]
99%	9.1 nM	C#Cc1ccc(Cc2cc3c(c(C)c2C)OCN([C@H]2COCC[C@@H]2O)C3=O)cn1 [Example 112, 1,5-anhydro-2,4-dideoxy-2-(6-((6-ethynylpyridine-3-yl)methyl)-7,8-dimethyl-4-oxo-2H-1,3-benzoxazin-3(4H)-yl)-L-threo-pentitol]
96%	7 nM	Cc1c(Cc2ccc3nn(C)cc3c2)cc2c(c1C)OCN([C@H]1COCC[C@@H]1O)C2=O [Example 116, 1,5-anhydro-2,4-dideoxy-2-(7,8-dimethyl-6-((2-methyl-2H-indazol-5-yl)methyl)-4-oxo-2H-1,3-benzoxazin-3(4H)-yl)-L-threo-pentitol]
116%	47 nM	CCc1cc2c(cc1Cc1ccc(OC)nc1)C(=O)N([C@H]1COCC[C@@H]1O)CO2 [Example 118, 1,5-anhydro-2,4-dideoxy-2-(7-ethyl-6-((6-methoxypyridin-3-yl)methyl)-4-oxo-2H-1,3-benzoxazin-3(4H)-yl)-L-threo-pentitol]
101%	10 nM	Cc1cc2c(cc1Cc1ccc(Cl)nc1)C(=O)N([C@H]1CCCC[C@@H]1O)CO2 [Example 140, 6-((6-chloropyridin-3-yl)methyl)-3-((1S,2S)-2-hydroxycyclohexyl)-7-methyl-2,3-dihydro-4H-1,3-benzoxazin-4-one]
99%	38 nM	Cc1c(Cc2ccc(-n3nccn3)cc2)cc2c(c1C)OCN([C@H]1COCC[C@@H]1O)C2=O [Example 142, 1,5-anhydro-2,4-dideoxy-2-(7,8-dimethyl-4-oxo-6-(4-(2H-1,2,3-triazol-2-yl)benzyl)-2H-1,3-benzoxazin-3(4H)-yl)-L-threo-pentitol]

Compound	activity (%) at 10 μM	EC50
Cc1c(Cc2ccc(C#C[Si](C)(C)C)nc2)cc2c(c1C)OCN([C@H]1COCC[C@@H]1O)C2=O [Example 111, 1,5-anhydro-2,4-dideoxy-2-(7,8-dimethyl-4-oxo-6-((6-((trimethylsilyl)ethynyl)pyridin-3-yl)methyl)-2H-1,3-benzoxazin-3(4H)-yl)-L-threo-pentitol]	96%	68 nM
